# Experimental data as given in ChEMBL document CHEMBL1201862, “PubChem BioAssay data set” (2004).
# Calls of active or inactive are those of the source.
# Experiments:
# [1] = biological target: T1, Corticotropin-releasing factor receptor 2/Corticotropin-releasing factor-binding protein (Homo sapiens, UniProt P24387+Q13324); assay: activators of CRF receptor 2 with binding protein – uHTS hits, confirmation (AID 602473); format: functional; details: read-out: EC50_Mean
# T1 sequence (Q13324 whole entry): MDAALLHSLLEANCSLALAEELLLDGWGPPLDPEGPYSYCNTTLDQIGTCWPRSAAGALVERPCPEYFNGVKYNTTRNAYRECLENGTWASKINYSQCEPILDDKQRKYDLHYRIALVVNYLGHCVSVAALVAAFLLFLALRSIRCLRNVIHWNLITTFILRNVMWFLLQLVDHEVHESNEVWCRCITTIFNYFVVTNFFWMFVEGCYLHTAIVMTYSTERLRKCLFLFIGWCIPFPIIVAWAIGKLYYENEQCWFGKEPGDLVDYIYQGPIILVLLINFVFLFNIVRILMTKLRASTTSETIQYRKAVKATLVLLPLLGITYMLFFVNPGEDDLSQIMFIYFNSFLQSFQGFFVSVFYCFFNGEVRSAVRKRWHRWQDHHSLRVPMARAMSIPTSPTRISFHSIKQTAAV
# T1 sequence (P24387 whole entry): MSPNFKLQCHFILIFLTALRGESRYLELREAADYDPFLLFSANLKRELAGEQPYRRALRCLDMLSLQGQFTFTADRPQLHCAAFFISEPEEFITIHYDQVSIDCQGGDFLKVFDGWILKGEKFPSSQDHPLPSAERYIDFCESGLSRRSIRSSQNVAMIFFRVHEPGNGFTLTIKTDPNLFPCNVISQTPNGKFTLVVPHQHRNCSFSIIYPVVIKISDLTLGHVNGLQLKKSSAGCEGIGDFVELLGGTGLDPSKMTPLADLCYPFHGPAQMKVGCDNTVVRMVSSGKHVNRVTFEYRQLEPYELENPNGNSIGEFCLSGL
# [2] = CRF-BP/CRF-R2 complex antagonists, dose response, cell-based, uHTS hits, 384-well (AID 651639); format: functional, Homo sapiens; details: read-out: IC50_Mean
# [3] = biological target: T1, Corticotropin-releasing factor receptor 2/Corticotropin-releasing factor-binding protein; assay: Dose Response confirmation of uHTS hits for small molecule antagonists of the CRF-binding protein and CRF-R2 receptor complex.; format: functional; details: read-out: IC50_Mean
# [4] = biological target: T2, Probable nicotinate-nucleotide adenylyltransferase (Staphylococcus aureus (strain N315), UniProt P65502); format: functional, Staphylococcus aureus subsp. aureus N315;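 as to IC50 Mean: confirmatory dose-response retesting of NadD inhibitor hits first found in an ultra-high-throughput screen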
# [5] = biological target: T2, Probable nicotinate-nucleotide adenylyltransferase; format: functional, Staphylococcus aureus subsp. aureus N315; details: read-out: IC50_Mean
# [6] = biological target: Carboxy-terminal domain RNA polymerase II polypeptide A small phosphatase 1 (Homo sapiens, UniProt Q9GZU7); assay: inhibitors of CTDSP1, concentration-response testing, biochemical assay, absorbance-based, actives from ultra-high-throughput screening (AID 540297); format: functional
# [7] = biological target: Sentrin-specific protease 1 (Homo sapiens, UniProt Q9P0U3); assay: Dose response confirmation of small molecule inhibitors of the catalytic domain of the SUMO protease, SENP1 in a FRET assay.; format: functional; details: read-out: IC50_Mean
# [8] = off-target signal loss in HeLa-CEM21 co-culture – HeLa F-luc CTL cells, cherry-picked, counter-screen for HIV-1 Env fusion inhibitor project, dose response (AID 652040); format: functional, cell-based;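 also: potency for signal decrease marking cytotoxic or nonspecific inhibition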
# [9] = inhibitors of clade B AD8 Env fusion, dose response, cell-based, cherry-pick (AID 652062); format: functional;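 also: luciferase signal from cell-cell fusion driven by HIV-1 clade B AD8 Env; potency is for inhibitors of fusion seen as a drop in luminescence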
# Interleukin-8 = Interleukin-8 (Homo sapiens, UniProt P10145); assay: Dose Response confirmation of uHTS small molecule hits for cystic fibrosis induced NFkb Inhibitors in a PAF-induced IL8 counterscreen.; format: functional; details: read-out: IC50_Mean
# [10] = inhibitors of HIV Env-driven cell fusion, dose response, cherry-pick (AID 652057); format: functional, cell-based
# [11] = biological target: T3, Replicative DNA helicase DnaB (Mycobacterium tuberculosis, UniProt P9WMR3); assay: DnaB intein splicing inhibitors, dose response, biochemical, cell-free fluorescence (AID 449749); format: functional
# T3 sequence (P9WMR3 whole entry): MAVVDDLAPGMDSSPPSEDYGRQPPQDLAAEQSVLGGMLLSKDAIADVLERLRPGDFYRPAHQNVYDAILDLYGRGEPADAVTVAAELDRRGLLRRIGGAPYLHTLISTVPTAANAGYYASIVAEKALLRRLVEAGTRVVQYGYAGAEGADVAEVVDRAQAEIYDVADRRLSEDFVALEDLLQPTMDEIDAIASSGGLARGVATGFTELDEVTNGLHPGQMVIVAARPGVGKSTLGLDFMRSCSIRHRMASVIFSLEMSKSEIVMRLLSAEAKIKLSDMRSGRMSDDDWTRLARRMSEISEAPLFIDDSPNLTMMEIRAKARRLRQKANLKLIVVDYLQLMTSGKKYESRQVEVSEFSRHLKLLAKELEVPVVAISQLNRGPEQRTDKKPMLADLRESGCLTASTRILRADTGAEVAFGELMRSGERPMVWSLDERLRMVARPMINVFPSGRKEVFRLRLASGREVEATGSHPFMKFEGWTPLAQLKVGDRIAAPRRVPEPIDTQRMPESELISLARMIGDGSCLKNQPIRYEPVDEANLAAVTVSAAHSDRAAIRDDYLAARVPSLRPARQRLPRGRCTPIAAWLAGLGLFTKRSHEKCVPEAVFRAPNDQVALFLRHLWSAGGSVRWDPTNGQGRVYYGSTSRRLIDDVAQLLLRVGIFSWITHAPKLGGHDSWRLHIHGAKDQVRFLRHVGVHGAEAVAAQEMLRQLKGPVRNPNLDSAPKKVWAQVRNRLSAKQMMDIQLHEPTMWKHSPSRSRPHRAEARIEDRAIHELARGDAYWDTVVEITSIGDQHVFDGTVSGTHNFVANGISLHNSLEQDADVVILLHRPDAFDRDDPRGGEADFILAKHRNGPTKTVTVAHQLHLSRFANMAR
# [12] = biological target: T4, Sentrin-specific protease 8 (Homo sapiens, UniProt Q96LD8); format: functional;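 also: kinetic enzyme assay of SENP8 cleaving a Nedd8 protein substrate, dose-response confirmation of screening hits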
# T4 sequence (Q96LD8 whole entry): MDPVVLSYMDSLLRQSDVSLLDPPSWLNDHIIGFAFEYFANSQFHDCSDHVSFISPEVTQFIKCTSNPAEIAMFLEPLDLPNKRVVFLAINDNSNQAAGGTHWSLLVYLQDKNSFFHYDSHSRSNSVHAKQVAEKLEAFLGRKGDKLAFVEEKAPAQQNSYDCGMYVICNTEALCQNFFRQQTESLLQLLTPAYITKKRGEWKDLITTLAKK
# [13] = biological target: T5, Tyrosyl-DNA phosphodiesterase 2 (Homo sapiens, UniProt O95551); assay: human TDP2 enzyme inhibitors, dose response, biochemical, epi absorbance, IC50 (AID 743297)
# T5 sequence (O95551 whole entry): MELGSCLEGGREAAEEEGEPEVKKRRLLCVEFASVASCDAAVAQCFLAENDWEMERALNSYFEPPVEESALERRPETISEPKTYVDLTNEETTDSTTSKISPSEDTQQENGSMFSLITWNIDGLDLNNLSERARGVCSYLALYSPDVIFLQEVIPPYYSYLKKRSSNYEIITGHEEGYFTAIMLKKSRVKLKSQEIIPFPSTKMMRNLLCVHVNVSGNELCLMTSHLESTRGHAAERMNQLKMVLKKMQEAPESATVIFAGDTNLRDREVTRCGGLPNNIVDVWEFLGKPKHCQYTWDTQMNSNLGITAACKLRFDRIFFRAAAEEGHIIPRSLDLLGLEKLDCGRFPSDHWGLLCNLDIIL
# Protein RecA = biological target: T6, Protein RecA (Mycobacterium tuberculosis, UniProt P9WHJ3); assay: Fluorescence Cell-Free Homogeneous Dose Retest to Identify Inhibitors of RecA-Intein Splicing Activity. [Related pubchem assays (depositor defined):AID2097, AID2223, AID489010, AID492950]; format: functional
# T6 sequence (P9WHJ3 whole entry): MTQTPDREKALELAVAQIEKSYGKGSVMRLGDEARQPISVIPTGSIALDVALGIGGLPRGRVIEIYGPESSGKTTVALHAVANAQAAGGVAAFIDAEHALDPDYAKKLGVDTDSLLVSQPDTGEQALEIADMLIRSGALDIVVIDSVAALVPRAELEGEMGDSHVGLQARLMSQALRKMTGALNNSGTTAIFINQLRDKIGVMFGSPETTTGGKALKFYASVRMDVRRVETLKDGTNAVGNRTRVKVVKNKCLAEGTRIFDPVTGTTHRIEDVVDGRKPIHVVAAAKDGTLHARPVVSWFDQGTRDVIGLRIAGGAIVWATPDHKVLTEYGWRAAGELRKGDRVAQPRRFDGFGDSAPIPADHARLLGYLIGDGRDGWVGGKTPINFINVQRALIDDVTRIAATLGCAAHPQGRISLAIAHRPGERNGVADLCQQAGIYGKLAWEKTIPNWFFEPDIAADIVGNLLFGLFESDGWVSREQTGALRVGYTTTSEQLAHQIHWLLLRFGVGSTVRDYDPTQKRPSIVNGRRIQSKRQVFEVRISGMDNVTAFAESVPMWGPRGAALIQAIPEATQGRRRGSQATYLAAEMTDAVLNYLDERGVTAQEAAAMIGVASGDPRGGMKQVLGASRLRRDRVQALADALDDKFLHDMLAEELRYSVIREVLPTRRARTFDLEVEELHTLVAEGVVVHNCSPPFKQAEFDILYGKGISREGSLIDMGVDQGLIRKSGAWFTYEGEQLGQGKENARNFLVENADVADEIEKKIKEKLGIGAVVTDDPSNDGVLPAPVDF
# [14] = biological target: T7, Small ubiquitin-related modifier 1 (Homo sapiens, UniProt P63165); assay: inhibitors of SUMO1 partner interactions, dose response, biochemical, FRET (AID 624383); format: functional; details: read-out: IC50_Mean
# [15] = biological target: T8, Rac GTPase-activating protein 1 (Homo sapiens, UniProt Q9H0H5); assay: MgcRacGAP GTPase-activating activity inhibitors, confirmation, biochemical, ADP Hunter fluorescence, primary and confirmatory (AID 624330); format: functional
# T8 sequence (Q9H0H5 whole entry): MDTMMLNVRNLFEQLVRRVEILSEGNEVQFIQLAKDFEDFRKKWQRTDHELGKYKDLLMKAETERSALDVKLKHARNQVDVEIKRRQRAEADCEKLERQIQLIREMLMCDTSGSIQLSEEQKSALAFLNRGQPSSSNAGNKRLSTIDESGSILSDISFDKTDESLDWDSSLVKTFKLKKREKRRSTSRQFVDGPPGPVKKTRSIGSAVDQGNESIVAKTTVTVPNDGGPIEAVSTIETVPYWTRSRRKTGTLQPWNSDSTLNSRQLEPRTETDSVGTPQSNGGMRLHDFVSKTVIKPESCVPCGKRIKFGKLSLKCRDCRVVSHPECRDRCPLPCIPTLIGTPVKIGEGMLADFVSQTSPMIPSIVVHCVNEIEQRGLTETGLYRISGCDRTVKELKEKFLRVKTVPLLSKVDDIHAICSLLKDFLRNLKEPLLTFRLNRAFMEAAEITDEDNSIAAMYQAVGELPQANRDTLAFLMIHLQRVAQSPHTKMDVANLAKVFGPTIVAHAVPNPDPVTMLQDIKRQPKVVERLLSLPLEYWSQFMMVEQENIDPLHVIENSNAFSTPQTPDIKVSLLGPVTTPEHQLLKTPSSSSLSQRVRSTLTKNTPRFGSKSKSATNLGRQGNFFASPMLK
# [16] = biological target: T9, Small ubiquitin-related modifier 2 (Homo sapiens, UniProt P61956); assay: SUMO2–SIM peptide binding inhibitors, dose response, selectivity assay for SUMO1 interaction inhibitor project, biochemical, fluorescence polarization, uHTS hits (AID 624385); format: functional; details: read-out: IC50_Mean
# [17] = biological target: T9, Small ubiquitin-related modifier 2; assay: inhibitors of SUMO2 protein-protein interaction, dose response, selectivity assay for SUMO1 interaction inhibitor project, biochemical, FRET, human SUMO2, uHTS hits (AID 624384); format: functional; details: read-out: IC50_Mean
# Genome polyprotein = Genome polyprotein (dengue virus type 2, UniProt P29990); assay: Dengue-2 NS5 methyltransferase inhibitors, primary screen, biochemical, confirmation dose response (AID 588689); format: functional
# [18] = biological target: T7, Small ubiquitin-related modifier 1; assay: inhibitors of SUMO1 peptide binding, dose response, biochemical, fluorescence polarization, uHTS hits (AID 624382); format: functional; details: read-out: IC50_Mean
# [19] = biological target: Mitochondrial peptide methionine sulfoxide reductase (Bos taurus, UniProt P54149); format: functional;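 also: absorbance read-out, biochemical high-throughput dose-response screen for MsrA inhibitors, confirmatory; recombinant bovine MsrA coupled to E. coli TrxB with NADPH and selenocystamine; potency is for inhibitors of MsrA activity on DMSO substrate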
# [20] = NIH/3T3 fibroblast cytotoxicity, dose response, cytotoxicity control for T. cruzi growth inhibitor project, cell-based, cherry-pick samples, set 2 (AID 651817); format: functional; details: NIH3T3
# T7 sequence (P63165 whole entry): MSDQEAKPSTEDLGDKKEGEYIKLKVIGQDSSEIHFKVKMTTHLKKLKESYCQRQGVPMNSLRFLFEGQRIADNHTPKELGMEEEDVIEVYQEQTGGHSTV
# T2 sequence (P65502 whole entry): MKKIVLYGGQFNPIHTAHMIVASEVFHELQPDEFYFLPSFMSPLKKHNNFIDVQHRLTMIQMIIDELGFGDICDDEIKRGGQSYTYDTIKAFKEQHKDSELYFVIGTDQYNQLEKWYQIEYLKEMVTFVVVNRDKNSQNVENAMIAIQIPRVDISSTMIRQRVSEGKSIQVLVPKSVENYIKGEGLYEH
# T9 sequence (P61956 whole entry): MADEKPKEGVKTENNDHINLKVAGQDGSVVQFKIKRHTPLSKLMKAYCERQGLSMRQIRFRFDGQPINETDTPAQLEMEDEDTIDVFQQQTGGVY
# Sentrin-specific protease 1, sequence (Q9P0U3 whole entry, the tested form may be a part): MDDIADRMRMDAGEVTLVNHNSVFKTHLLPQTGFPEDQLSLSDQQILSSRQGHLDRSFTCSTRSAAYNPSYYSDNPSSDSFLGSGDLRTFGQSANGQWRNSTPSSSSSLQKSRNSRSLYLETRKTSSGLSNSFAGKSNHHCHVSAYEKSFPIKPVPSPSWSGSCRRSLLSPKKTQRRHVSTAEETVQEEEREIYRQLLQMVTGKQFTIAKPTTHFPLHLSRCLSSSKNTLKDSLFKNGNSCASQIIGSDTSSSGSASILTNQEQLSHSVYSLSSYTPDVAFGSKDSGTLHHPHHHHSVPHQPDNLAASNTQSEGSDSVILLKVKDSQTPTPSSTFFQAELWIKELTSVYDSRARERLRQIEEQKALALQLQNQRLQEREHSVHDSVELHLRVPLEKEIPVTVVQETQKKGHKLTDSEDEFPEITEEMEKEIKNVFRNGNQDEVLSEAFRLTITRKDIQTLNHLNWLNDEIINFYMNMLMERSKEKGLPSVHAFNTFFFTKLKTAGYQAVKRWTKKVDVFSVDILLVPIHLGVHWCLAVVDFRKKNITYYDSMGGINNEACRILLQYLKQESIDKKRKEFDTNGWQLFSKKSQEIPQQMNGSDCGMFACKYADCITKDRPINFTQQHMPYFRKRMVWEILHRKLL
# Genome polyprotein, sequence (P29990 2492-3391 limits assumed): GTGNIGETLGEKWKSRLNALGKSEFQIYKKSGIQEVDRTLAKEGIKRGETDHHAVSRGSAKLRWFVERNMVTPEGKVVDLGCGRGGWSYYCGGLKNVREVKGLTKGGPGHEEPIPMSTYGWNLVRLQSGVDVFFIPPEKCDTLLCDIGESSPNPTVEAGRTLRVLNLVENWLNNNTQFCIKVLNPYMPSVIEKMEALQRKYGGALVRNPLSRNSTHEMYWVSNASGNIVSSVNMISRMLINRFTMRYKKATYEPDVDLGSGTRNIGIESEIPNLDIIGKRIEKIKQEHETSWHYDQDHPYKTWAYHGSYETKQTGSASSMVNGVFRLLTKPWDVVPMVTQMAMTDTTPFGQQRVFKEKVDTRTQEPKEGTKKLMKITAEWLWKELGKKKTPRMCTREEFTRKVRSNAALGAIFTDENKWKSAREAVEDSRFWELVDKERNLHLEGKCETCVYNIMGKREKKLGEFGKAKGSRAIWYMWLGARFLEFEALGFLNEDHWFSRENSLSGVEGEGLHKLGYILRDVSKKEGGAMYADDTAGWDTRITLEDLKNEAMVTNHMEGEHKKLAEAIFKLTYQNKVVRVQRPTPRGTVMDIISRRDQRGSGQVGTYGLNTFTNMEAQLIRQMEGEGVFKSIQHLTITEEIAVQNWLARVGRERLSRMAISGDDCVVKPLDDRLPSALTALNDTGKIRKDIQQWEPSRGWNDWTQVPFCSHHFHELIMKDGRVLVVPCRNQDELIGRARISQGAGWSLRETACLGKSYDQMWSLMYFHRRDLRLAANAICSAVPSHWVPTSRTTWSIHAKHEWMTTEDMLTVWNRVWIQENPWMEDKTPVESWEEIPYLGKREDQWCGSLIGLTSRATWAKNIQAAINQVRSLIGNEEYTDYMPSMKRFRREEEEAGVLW
# Interleukin-8, sequence (P10145 whole entry, the tested form may be a part): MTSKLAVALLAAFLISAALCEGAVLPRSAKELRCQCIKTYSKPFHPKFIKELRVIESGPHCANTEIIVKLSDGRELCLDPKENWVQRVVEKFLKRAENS
# Carboxy-terminal domain RNA polymerase II polypeptide A small phosphatase 1, sequence (Q9GZU7 whole entry, the tested form may be a part): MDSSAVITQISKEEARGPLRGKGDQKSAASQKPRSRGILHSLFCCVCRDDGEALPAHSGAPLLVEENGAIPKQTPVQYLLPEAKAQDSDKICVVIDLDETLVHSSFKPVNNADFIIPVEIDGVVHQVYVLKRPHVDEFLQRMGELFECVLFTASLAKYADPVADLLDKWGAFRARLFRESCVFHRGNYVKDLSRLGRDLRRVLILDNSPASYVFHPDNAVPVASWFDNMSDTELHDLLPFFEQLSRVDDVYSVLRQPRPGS
# Mitochondrial peptide methionine sulfoxide reductase, sequence (P54149 whole entry): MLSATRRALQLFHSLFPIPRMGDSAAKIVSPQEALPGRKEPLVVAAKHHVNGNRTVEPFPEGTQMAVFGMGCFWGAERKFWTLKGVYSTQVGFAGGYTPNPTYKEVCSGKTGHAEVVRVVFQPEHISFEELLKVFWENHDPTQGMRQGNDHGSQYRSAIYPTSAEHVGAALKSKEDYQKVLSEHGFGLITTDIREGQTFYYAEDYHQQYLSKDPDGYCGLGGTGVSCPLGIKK
structure (smiles),measurement,setting,value
Cc1noc(C)c1COC(=O)c1cc(C)n(-c2ccccc2)c1C,EC50,[1],> 53 µM (inactive)
same,IC50,[2],> 20 µM (inactive)
same,IC50,[3],6.04 µM (active)
CC1CCCCC1NC(=O)COC(=O)c1c2c(nc3ccccc13)/C(=C\c1ccco1)CC2 (stereo not drawn),IC50,[4],6.81 µM (active)
same,IC50,[5],14.6 µM (active)
same,IC50,[6],5.27 µM (active)
Cc1nc2ccc(NS(=O)(=O)c3ccc(F)cc3F)cc2s1,IC50,[7],18.4 µM (active)
COc1ccc(-c2cc(=O)oc3c(C)c(O)ccc23)cc1,AC50,[8],9.72 µM (active)
same,AC50,[9],5.69 µM (active)
same,IC50,Interleukin-8,> 79 µM (inactive)
same,AC50,[10],3.8 µM (active)
COc1ccc(O)c(C(c2c(C)[nH][nH]c2=O)c2c(C)[nH][nH]c2=O)c1,AC50,[11],1.42 µM (active)
same,IC50,[12],7.14 µM (active)
same,IC50,[13],33.6 µM (inactive)
same,EC50,Protein RecA,1.17 µM (active)
CCCCCC(=O)Nc1cc(S(=O)(=O)O)cc2cc(S(=O)(=O)O)cc(O)c12,IC50,[14],2.29 µM (active)
same,IC50,[15],31.7 µM (active)
same,IC50,[16],6.81 µM (active)
same,IC50,[17],0.92 µM (active)
same,IC50,Genome polyprotein,30 µM (active)
same,IC50,[18],19.2 µM (active)
Cc1c(OCC(=O)N(C)C)ccc2c(-c3ccccc3)cc(=O)oc12,IC50,[19],93.6 µM (inactive)
C[C@@H]1CN([C@@H](C)CO)C(=O)Cc2cc(NS(=O)(=O)c3ccc(F)cc3)ccc2O[C@@H]1CN(C)Cc1ccc(Cl)c(Cl)c1,AC50,[20],11 µM (active)
